Broadly, the Ki is the dissociation constant of the complex between target and ligand, obtained from inhibition or displacement. Read a high Ki as lower affinity. As usually defined, the EC50 is the concentration at which the effect is half-maximal.

The values that follow come from ChEMBL document CHEMBL3286109, “Structure-activity relationship studies of indole-based compounds as small molecule HIV-1 fusion inhibitors targeting glycoprotein 41” (J Med Chem, 2014).

The nature of series [1]: Binding affinity to HIV1 Envelope glycoprotein gp41 Fe(env2.0)3 using C18FL as probe by fluorescence assay. Further details: species or system Human immunodeficiency virus 1.
For series [2], the system named is Human immunodeficiency virus 1. Kind of series: Antiviral activity against HIV-1 3B infected in human MAGI-CCR5 cells assessed as inhibition of viral replication after 48 hrs by chemiluminescence assay. Type of series: functional, organism-based. The settings on record: Human immunodeficiency virus 1, 3B, MAGI-CCR5, 48 h.
The subject of series [3] is Human immunodeficiency virus 1. Kind of series: Antiviral activity against HIV-1 Ba-L infected in human MAGI-CCR5 cells assessed as inhibition of viral replication after 48 hrs by chemiluminescence assay. The class given is functional, organism-based. To be noted: Human immunodeficiency virus 1, Ba-L, MAGI-CCR5, 48 h.
Series [4] can be described thus: Cytotoxicity against human TZM-bl cells assessed as inhibition of cell viability by resazurin assay. The settings on record: read-out: TC50 (the source's name).
Series [5] in a line: Cytotoxicity against human MAGI-CCR5 cells assessed as inhibition of cell viability by MTS assay. Type of series: cell-based. The settings on record: read-out: TC50 (the source's name). A general note: Formazan colour is commonly taken as a measure of viable cells.
A short description of series [6]: Inhibition of HIV1 HXB2 gp41-mediated cell-cell fusion between viral envelope-expressing human HL2/3 cells to human TZM-bl cells by luciferase reporter assay. The class given is cell-based. To be noted: Human immunodeficiency virus 1, HXB2, TZM-bl. (In general: In a reporter assay the amount or activity of a reporter protein is the signal.)

As to `O=C(O)c1cccc(Cn2cnc3ccc(-c4ccc5cc[nH]c5c4)cc32)c1`, in series [1], the affinity corresponds to a Ki of 11 µM. Moreover, the 50% effective concentration (EC50) in series [2] was determined as 36 µM; in series [3], 41 µM; in series [6], 14 µM. Also, the CC50 in series [4] and in series [5] was greater than 100 µM each time.

In series [1], `O=C(O)c1cccc(Cn2ccc3ccc(-c4ccc5ccn(Cc6ccccc6)c5c4)cc32)c1` gave a Ki of 3.5 µM. Besides, the figures for the EC50 in series [2], in series [3] and in series [6] were 4.6 µM, 4.4 µM and 2 µM, respectively. In addition, the CC50 in series [4] is greater than 50 µM; in series [5] it was greater than 100 µM.

`O=C(O)c1cccc(Cn2cnc3cc(-c4ccc5cc[nH]c5c4)ccc32)c1` yielded a Ki in series [1] of 16 µM. The EC50 in series [2] is greater than 100 µM; in series [3] it was greater than 100 µM; in series [6] it was 124 µM. In addition, the CC50 in series [4] and in series [5] was greater than 100 µM each time.

In series [1], `COc1cccc(Cn2cnc3ccc(-c4ccc5ccn(Cc6cccc(C(=O)O)c6)c5c4)cc32)c1` showed a Ki of 4.7 µM. The EC50 in series [2] is 63 µM; in series [3] it was 56 µM; in series [6] it was 45 µM. Besides, the CC50 in series [4] and in series [5] was greater than 100 µM each time.

The compound `COc1ccc(Cn2ccc3ccc(-c4ccc5c(ccn5Cc5cccc(C(=O)O)c5)c4)cc32)cc1` came in with an inhibition constant (Ki) in series [1] of 3 µM. Moreover, the EC50 in series [2] came out at 19 µM; in series [3] it was 18 µM; in series [6], 7 µM. For the same compound, the results for the CC50 in series [4] and in series [5] were greater than 100 µM and 18 µM, respectively.

`COc1cccc(Cn2ccc3ccc(-c4ccc5ccn(Cc6cccc(C(=O)O)c6)c5c4)cc32)c1` yielded an inhibition constant (Ki) in series [1] of 1.1 µM. For the same compound, the EC50 in series [2] stood at 0.9 µM; in series [3] it was 0.9 µM; in series [6], 1 µM. In addition, the CC50 in series [4] was determined as 71 µM; in series [5], 37 µM.

Turning to `O=C(O)c1cccc(Cn2ccc3cc(-c4ccc5cc(Cl)ccc5n4)ccc32)c1`, the EC50 is 6 µM in series [3] and 8 µM in series [6]. In addition, the CC50 in series [4] amounted to 100 µM.

Take `COc1cccc(Cc2c[nH]c3cc(-c4ccc5ccn(Cc6cccc(C(=O)O)c6)c5c4)ccc23)c1`: the Ki in series [1] is 0.9 µM. The EC50 in series [2] came out at 5.8 µM; in series [3], 5.6 µM; in series [6], 6 µM. Also, the CC50 in series [4] is 33 µM; in series [5], 24 µM.

On to `COc1cccc(-c2ccc3ccn(Cc4cccc(C(=O)O)c4)c3c2)c1`, for which the EC50 in series [3] stood at 28 µM; in series [6] it was 14 µM. For the same compound, the CC50 in series [4] and in series [5] was greater than 100 µM throughout.

`COc1ccc(Cn2ccc3cc(-c4ccc5c(ccn5Cc5cccc(C(=O)O)c5)c4)ccc32)cc1`: the Ki in series [1] is 3.9 µM. The EC50 in series [2] amounted to 20 µM; in series [3] it was 18 µM; in series [6] it was 12 µM. Further, the results for the CC50 in series [4] and in series [5] were greater than 100 µM and 55 µM, respectively.

In the case of `COc1ccc(Cn2ccc3cc(-c4ccc5ccn(Cc6cccc(C(=O)O)c6)c5c4)ccc32)cc1`, in series [1], the Ki was found to be 4.2 µM. In addition, the EC50 in series [2] was 8.3 µM; in series [3], 6.9 µM; in series [6], 3.5 µM. Moreover, the values for the CC50 in series [4] and in series [5] were 91 µM and 24 µM, respectively.

In series [1], `O=C(O)c1cccc(Cn2ccc3ccc(-c4ccc5ccn(Cc6cccc(C(=O)O)c6)c5c4)cc32)c1` returned a Ki of 0.6 µM. In addition, the EC50 in series [2] came out at 67 µM; in series [3] it was 58 µM; in series [6], 12 µM. Also, the CC50 in series [4] and in series [5] was greater than 100 µM throughout.

The compound `O=C(O)c1cccc(Cn2ccc3ccc(-c4ccc5ccn(Cc6ccc(C(F)(F)F)cc6)c5c4)cc32)c1` yielded a Ki in series [1] of 1 µM. Besides, the concentration for a half-maximal effect (EC50) was found to be 1 µM in series [2], 0.9 µM in series [3] and 2 µM in series [6]. For the same compound, the CC50 in series [4] is greater than 50 µM; in series [5], 52 µM.

Turning to `O=C(O)c1cccc(Cn2ccc3ccc(-c4ccc5cc(Cl)ccc5n4)cc32)c1`, in series [3], the EC50 was 48 µM. The figures for the CC50 in series [4] and in series [5] were 50 µM and greater than 100 µM, respectively.

In series [1], `COc1cccc(Cn2ccc3ccc(-c4ccc5c(Cc6cccc(C(=O)O)c6)c[nH]c5c4)cc32)c1` showed a Ki of 1.6 µM. Further, the values for the EC50 in series [2], in series [3] and in series [6] were 18 µM, 18 µM and 7 µM, respectively. Further, the CC50 stood at 57 µM in series [4] and 34 µM in series [5].

For the compound `O=C(O)c1cccc(Cn2ccc3ccc(-c4ccc5ccn(Cc6ccc(F)cc6)c5c4)cc32)c1`, the Ki in series [1] came to 1.7 µM. The EC50 is 1.6 µM in series [3] and 1.1 µM in series [6]. Also, the CC50 in series [4] is greater than 25 µM.

`COC(=O)c1cccc(Cc2c[nH]c3ccc(-c4ccc5[nH]cc(Cc6cccc(C(=O)O)c6)c5c4)cc23)c1` gave an inhibitory constant (Ki) in series [1] of 1.2 µM. The figures for the EC50 in series [2], in series [3] and in series [6] were 4.8 µM, 5 µM and 2 µM, respectively. The CC50 in series [4] was determined as 99 µM; in series [5], 31 µM.

In turn, `O=C(O)c1cccc(Cn2ccc3ccc(-c4ccc5ccn(Cc6ccc(COc7ccccc7)cc6)c5c4)cc32)c1` registered a Ki in series [1] of 6.2 µM. The figures for the EC50 in series [2], in series [3] and in series [6] were 32 µM, 27 µM and 17 µM, respectively. For the same compound, the CC50 in series [4] and in series [5] was greater than 100 µM throughout.

Compound `COc1cccc(Cn2cnc3cc(-c4ccc5ccn(Cc6cccc(C(=O)O)c6)c5c4)ccc32)c1` came in with a Ki in series [1] of 5.3 µM. Besides, the EC50 worked out at 49 µM in series [2], 28 µM in series [3] and 56 µM in series [6]. In addition, the CC50 in series [4] and in series [5] was greater than 100 µM throughout.

As for `O=C(O)c1cccc(Cn2ccc3ccc(-c4cccc(O)c4)cc32)c1`, the values for the EC50 in series [3] and in series [6] were 23 µM and 8 µM, respectively. Besides, the CC50 in series [4] came to 100 µM; in series [5], 94 µM.

In turn, `Cn1nnc2ccc(Cn3ccc4ccc(-c5ccc6ccn(Cc7cccc(C(=O)O)c7)c6c5)cc43)cc21` returned a Ki in series [1] of 1.5 µM. Further, the EC50 in series [2] came out at 9.4 µM; in series [3] it was 6.6 µM; in series [6], 2.5 µM. Further, the CC50 in series [4] is greater than 100 µM; in series [5], 52 µM.

In series [1], `NC(=O)c1cccc(Cn2ccc3ccc(-c4ccc5ccn(Cc6cccc(C(=O)O)c6)c5c4)cc32)c1` yielded a Ki of 0.8 µM. The values for the concentration giving a half-maximal response (EC50) in series [2], in series [3] and in series [6] were 51 µM, 39 µM and 6 µM, respectively. For the same compound, the CC50 in series [4] and in series [5] was greater than 100 µM throughout.

In series [1], `O=C(O)c1cccc(Cc2c[nH]c3ccc(-c4ccc5cc[nH]c5c4)cc23)c1` registered a Ki of 1.7 µM. For the same compound, the EC50 in series [2] stood at 13 µM; in series [3] it was 13 µM; in series [6], 5 µM. The CC50 in series [4] came out at 194 µM; in series [5] it was 80 µM.

Regarding `O=C(O)c1cccc(Cn2ccc3cc(-c4ccc5ccn(Cc6cccc(C(=O)O)c6)c5c4)ccc32)c1`, in series [1], the inhibition constant (Ki) is 0.7 µM. The concentration giving a half-maximal response (EC50) in series [2] worked out at 17 µM; in series [3] it was 20 µM; in series [6] it was 2 µM. For the same compound, the CC50 in series [4] and in series [5] was greater than 100 µM throughout.

In turn, `Cn1ccc2ccc(-c3ccc4ccn(Cc5cccc(C(=O)O)c5)c4c3)cc21` yielded a Ki in series [1] of 0.3 µM. The EC50 in series [2] was 4.3 µM; in series [3] it was 4.5 µM; in series [6] it was 1.3 µM. The CC50 in series [4] and in series [5] was greater than 50 µM in each case.

Compound `COc1cccc(Cn2ccc3ccc(-c4ccc5ncn(Cc6cccc(C(=O)O)c6)c5c4)cc32)c1` returned a Ki in series [1] of 6 µM. The EC50 was 57 µM in series [2], 54 µM in series [3] and 34 µM in series [6]. The CC50 in series [4] and in series [5] was greater than 100 µM each time.

Turning to `COc1cc(Cn2ccc3ccc(-c4ccc5ccn(Cc6cccc(C(=O)O)c6)c5c4)cc32)cc(OC)c1`, in series [1], the Ki came out at 0.9 µM. Also, the results for the EC50 in series [2], in series [3] and in series [6] were 1.5 µM, 1.5 µM and 2.3 µM, respectively. For the same compound, the values for the CC50 in series [4] and in series [5] were 93 µM and 49 µM, respectively.

`O=C(O)c1cccc(Cc2c[nH]c3cc(-c4ccc5cc[nH]c5c4)ccc23)c1` had a Ki in series [1] of 0.6 µM. Moreover, the EC50 in series [2] turned out to be 14 µM; in series [3], 13 µM; in series [6], 6 µM. The CC50 in series [4] was determined as 290 µM; in series [5], 23 µM.

Turning to `COc1cccc(Cc2c[nH]c3cc(-c4ccc5c(Cc6cccc(C(=O)O)c6)c[nH]c5c4)ccc23)c1`, in series [1], affinity was put at a Ki of 0.9 µM. Also, the EC50 amounted to 6.2 µM in series [2], 5.9 µM in series [3] and 4 µM in series [6]. The CC50 turned out to be 500 µM in series [4] and 12 µM in series [5].

For `COc1cccc(Cn2ccc3ccc(-c4ccc5c(c4)ncn5Cc4cccc(C(=O)O)c4)cc32)c1`, in series [1], the affinity, expressed as Ki, was 3.8 µM. The EC50 in series [2] was greater than 100 µM; in series [3], 48 µM; in series [6] it was 6 µM. The CC50 in series [4] and in series [5] was greater than 100 µM throughout.

As to `COc1ccc(Cn2ccc3ccc(-c4ccc5ccn(Cc6cccc(C(=O)O)c6)c5c4)cc32)cc1`, the EC50 in series [2] and in series [3] was 0.9 µM throughout. Moreover, the CC50 in series [4] is 20 µM; in series [5], 32 µM.

The compound `O=C(O)c1cccc(Cn2ccc3ccc(-c4ccc5ccn(Cc6ccc(Oc7ccccc7F)cc6)c5c4)cc32)c1` displayed a Ki in series [1] of 9.5 µM. Also, the values for the EC50 in series [2], in series [3] and in series [6] were 5.5 µM, 5.3 µM and 8.2 µM, respectively. For the same compound, the CC50 in series [4] and in series [5] was greater than 100 µM in each case.
